A short description of series [1]: Aggregation behaviour and aggregate morphology of aged samples (TEM, far-UV CD). The format is physicochemical. Particulars: 25 mM phosphate.
Series [2] is described as follows: pH-dependent peptide solubility. It is filed as physicochemical. Particulars: from solid: ca. 0.5 mg lyophilized powder + 500 μL 25 mM phosphate, citrate or Tris; pH 2.5 to 8.5 in 0.5 steps; ca. 5 min, room temperature; 0.22 μm filtered; A280; soluble = concentrations above 50 μM, insoluble = not above 1 μM. How it is done:
Figure 1D illustrates the solubility of each lipidated analogue and nonlipidated GLP-1-Am at different pH values. […] Isoelectric points (pI) of the analogues were determined using isoelectric focusing gel electrophoresis (Figure S1), and the determined values are given in Figure 1D in the column next to the solubility chart. […] It is interesting to note that these both form well-defined oligomeric states (see later sections), in which it is likely that the local chemical environment of the individual ionizable groups has changed. […] Although there have been attempts to rationalize the solubility and even develop solubility predictors for peptide/protein analogs containing non-natural amino acids and amino acid derivatives, the prediction of the solubility of lipidated analogues remains challenging due to its complexity.[43],[44]
The peptide solubility was tested in the individual buffers differing by 0.5 on the pH scale (i.e., pH 2.5, 3.0, 3.5, 4.0, ...). […] Subsequently, the concentration of the peptide was determined spectrophotometrically (Cary 60 UV–vis, Agilent Technologies) using the absorption at 280 nm and a theoretical extinction coefficient of 6990 M^–1 cm^–1 at 280 nm.

Series [3] in a line: Isoelectric point by isoelectric focusing gel electrophoresis. The format is physicochemical. The settings on record: printed in Figure 1D. How it is done:
Figure 1D illustrates the solubility of each lipidated analogue and nonlipidated GLP-1-Am at different pH values. […] Isoelectric points (pI) of the analogues were determined using isoelectric focusing gel electrophoresis (Figure S1), and the determined values are given in Figure 1D in the column next to the solubility chart.

Series [4] in a line: Far-UV CD of freshly dissolved samples, α-helical content from MRE222. It is filed as physicochemical. The settings on record: 85 μM, 25 mM phosphate pH 7.5, room temperature, estimated from MRE222.
A short description of series [5]: Size-exclusion chromatography of oligomeric species. Particulars: freshly prepared, 135 μM. The format is physicochemical. The protocol: Analytical SEC was performed on an KTA FPLC system (GE Healthcare), using a Superdex 200 Increase 10/300 column (GE Healthcare). Samples were loaded using a 200 μL loop. Prior to loading, the samples were filtered through a 0.22 μm filter (Millex, PVDF Membrane) to avoid blocking the column by large aggregates. All samples were eluted at a flow rate of 0.75 mL min^–1 at room temperature, and UV absorbance detection at 280 nm through a 0.5 cm flow cell was used. A set of globular protein standards (GE Healthcare) was used to construct a calibration curve for the column, Figure S9.
Calibration curve for Superdex 200 Increase 10/300 column
Globular protein standards (GE Healthcare) were used for column calibration, (Fig. S9C). The gel phase
distribution parameter, Kav, of each protein standard was calculated as
where Ve is an elution volume of a protein standard, V0 is the void volume of the column (determined
used. The logarithm of the molecular weight of each protein standard was plotted against its Kav. A
linear regression of this plot was used to determine the molecular weight of any eluting species
For Stoke’s radius (RSt), a calibration plot of √−log(Kav) against
RSt and a linear regression was used.
Figure S9: Calibration of a Superdex 200 Increase 10/300 column. Calibrations on the molecular weight (A) and on the Stoke’s […]

Series [6] can be described thus: Sedimentation velocity analytical ultracentrifugation of oligomeric species. The format is physicochemical. Particulars: freshly prepared samples, pH 7.5; determined by both AUC and SEC. How it is done: Sedimentation velocity experiments were performed using a Beckman Optima XL-I Analytical Ultracentrifuge equipped with an An-60 Ti rotor. Samples of 85 μM peptide concentration were freshly prepared before the measurement. After a 2 h temperature equilibration of samples in the centrifuge to 20 °C, the experiment was performed with centrifugation at 50,000 rpm. The interference sedimentation curves were collected as 150 scans (approximately 12 h run time) and fitted to a continuous c(s) distribution model implemented in the Sedfit program.[48],[52],[53] The sedimentation coefficient was corrected for the standard state of the water at 20 °C (s20,w). The molecular weight and relative amount of each detected species were calculated using the Sedfit program.

For series [7] the following is noted: cited from earlier work.
On the set-up of series [8]: method as in 2 sources, one per row (each row's own in cited_ref): ref Venanzi et al., 20 ||| ref 20 = [20]; PMID 32780784; doi:10.1039/D0SM01011A; Venanzi M.; Savioli M.; Cimino R.; Gatto E.; Palleschi A.; Ripani G.; Cicero D.; Placidi E.; Orvieto F.; Bianchi E. A Spectroscopic and Molecular Dynamics Study on the Aggregation Process of. Particulars: semaglutide without C-terminal amidation, cited from earlier work.

We go through 5 compounds from paper PMC11926786, “Effect of Lipidation on the Structure, Oligomerization, and Aggregation of Glucagon-like Peptide 1” (Bioconjugate Chemistry, 2025).

“Also recorded” adds a separate entry of the source. Where two headings read alike, the source gives them in different places. *1 amine or outer side, *2 acyl side, *3 side chain or, on linkers, in order; H or OH if unused. Where a SMILES comes first, the peptide text is derived from it. Side-chain parts run from the residue outwards. The star is where a group is joined. γGlu = O=C(O)[C@H](CCC(=O)[*:2])N[*:1]; Palmitoyl = CCCCCCCCCCCCCCCC(=O)*

Consider `CCCCCCCCCCCCCCCC(=O)N[C@@H](CCC(=O)NCCCC[C@H](NC(=O)[C@@H](N)Cc1c[nH]cn1)C(=O)N[C@@H](CCC(=O)O)C(=O)NCC(=O)N[C@H](C(=O)N[C@@H](Cc1ccccc1)C(=O)N[C@H](C(=O)N[C@@H](CO)C(=O)N[C@@H](CC(=O)O)C(=O)N[C@H](C(=O)N[C@@H](CO)C(=O)N[C@@H](CO)C(=O)N[C@@H](Cc1ccc(O)cc1)C(=O)N[C@@H](CC(C)C)C(=O)N[C@@H](CCC(=O)O)C(=O)NCC(=O)N[C@@H](CCC(N)=O)C(=O)N[C@@H](C)C(=O)N[C@@H](C)C(=O)N[C@@H](CCCNC(=N)N)C(=O)N[C@@H](CCC(=O)O)C(=O)N[C@@H](Cc1ccccc1)C(=O)N[C@H](C(=O)N[C@@H](C)C(=O)N[C@@H](Cc1c[nH]c2ccccc12)C(=O)N[C@@H](CCCNC(=N)N)C(=O)N[C@H](C(=O)N[C@@H](CCCNC(=N)N)C(=O)NCC(=O)N[C@@H](CCCNC(=N)N)C(=O)NCC(N)=O)C(C)C)[C@@H](C)CC)C(C)C)[C@@H](C)O)[C@@H](C)O)C(=O)O` [GLP-1-Am (2, γ-Glu-palm)] (H-HK([γGlu-Palmitoyl])EGTFTSDVSSYLEGQAAREFIAWRVRGRG-NH2), for which the “aggregation at pH 3” value in series [1] is listed as “rapidly aggregate forming short fibril-like species with high β-sheet content; also recorded: analogue not soluble; (at pH 3, there is rapid formation of β-structure-rich fibrils)”.

For `CC[C@H](C)[C@H](NC(=O)[C@H](Cc1ccccc1)NC(=O)[C@H](CCC(=O)O)NC(=O)[C@H](CCCCN)NC(=O)[C@H](C)NC(=O)[C@H](C)NC(=O)[C@H](CCC(N)=O)NC(=O)CNC(=O)[C@H](CCC(=O)O)NC(=O)[C@H](CC(C)C)NC(=O)[C@H](Cc1ccc(O)cc1)NC(=O)[C@H](CO)NC(=O)[C@H](CO)NC(=O)[C@@H](NC(=O)[C@H](CC(=O)O)NC(=O)[C@H](CO)NC(=O)[C@@H](NC(=O)[C@H](Cc1ccccc1)NC(=O)[C@@H](NC(=O)CNC(=O)[C@H](CCC(=O)O)NC(=O)[C@H](C)NC(=O)[C@@H](N)Cc1cnc[nH]1)[C@@H](C)O)[C@@H](C)O)C(C)C)C(=O)N[C@@H](C)C(=O)N[C@@H](Cc1c[nH]c2ccccc12)C(=O)N[C@@H](CC(C)C)C(=O)N[C@H](C(=O)N[C@@H](CCCCN)C(=O)NCC(=O)N[C@@H](CCCNC(=N)N)C(=O)NCC(N)=O)C(C)C` [GLP-1-Am], the “pH range of solubility” value in series [2] is listed as “soluble at all pH values tested; also recorded: soluble over the entire range studied”. In addition, the “isoelectric point (pI)” value in series [3] was 7.4. Also, the α-helix content in series [4] was 21%. Further, in series [5] (25 mM phosphate pH 7.5, Superdex 200 Increase 10/300, 0.75 mL min–1, room temperature, A280), the “SEC peak elution volume(s)” value came out at 19.2 mL. Also, the SEC n-mer in series [5] (25 mM phosphate pH 7.5, Superdex 200 Increase 10/300, calculated from calibration with globular protein standards) is reported as 1–2. Also, in series [6], the oligomerization entry was “dimer and hexamer, less stable, detectable only by AUC, α-helical”.

Take GLP-1: the half-life in vivo entry in series [7] (in vivo) was “circa 2 min”.

For “liraglutide: marketed lipidated GLP-1 analogue, palmitic acid (C16) linked to Lys20 via a γ-glutamic acid spacer”, the half-life in vivo in series [7] (pharmacokinetic data) is 9 to 13 h.

On to “semaglutide: marketed lipidated GLP-1 analogue, stearic diacid (C18) lipidation at Lys20”, for which the oligomeric state result in series [8] was “equilibrium of monomers and dimers”. For the same compound, the aggregation on incubation result in series [8] (ref Venanzi et al., 20) is given as “aggregation was observed after several weeks of incubation”. Moreover, the half-life in vivo in series [7] (in vivo) is 170 h.
